One compound from US20080118980A1, “Estrogen Enhancing Differentiation of Human Mesenchymal Stromal Cells and Adipose-derived Stromal Cells” (The Board of Trustees of the University of Illinois,, priority 2006, published 2008) can be followed below.

What all share (format): cell-based
In one test the test system is human bone marrow MSCs. Briefly: Osteogenic differentiation of human bone marrow MSCs modulated by E2 (Example 1). The text has this:
Human bone marrow MSCs were provided by the Center for Gene Therapy of Tulane University. The MSCs were isolated from bone marrow cells donated by a healthy adult volunteer. The passage-1 cells were recovered and expanded by culture in a basic medium composed of DMEM, 10% FBS and 1% antibiotic-antimycotic. Human ASCs were isolated from a healthy person with a lipo-aspirated surgery. The abdomen subcutaneous adipose tissue was finely minced and then digested with 0.075 wt % collagenase type I at 37° C. for 45 min. The cells were then collected by filtration with a cell strainer with pore size of 100 μm diameter. The ASCs were expanded in basic DMEM medium. Upon reaching 80-90% confluence of human MSCs and ASCs, the cells were trypsinized, counted, and subcultured at a density of 10^5 cells/100 mm dish. The cells used for study were passage-2. For osteogenic differentiation, the cells were seeded at a cell density of 10^4 cells/cm2 on 12-well plates and 100-mm petri dishes. Upon reaching 70% confluence, counting as day-0, the cells were exposed to osteogenic differentiation medium supplemented with either 10 nM or 10 pM E2. The osteogenic differentiation medium consisted of basic medium supplemented with 100 nM dexamethasone, 10 mM β-glycerophosphate, and 0.05 mM ascorbic acid-2-phosphate. At the defined time, the cells were collected and analyzed for osteogenic gene expression and differentiation potentials.
The cultured cells in 12-well plates were washed twice with PBS, suspended and lysed in 1% Triton-X100 solution. The collected cells were subsequently homogenized using sonication. The DNA content was determined by a fluorometric assay (Bio-Rad). ALP and calcium content were measured by spectrophotometry with a calorimetric kit according to the manufacturers' instructions (Sigma).
RNA was extracted from differentiated cells using TRizol reagent (Invitrogen). 5 μg of total RNA was converted to single stranded cDNA using a commercial cDNA synthesis kit. Aliquots of the cDNA were amplified with Ampli-Taq DNA polymerase for ALP, osteocalcin (OCN), core binding factor alpha1 (cbfa1), peroxisome proliferator activated receptors gamma (PPARγ)-2, estrogen receptors (ER) alpha (α) and beta (β), and housekeeping gene GAPDH. 40 cycles were used, each consisting of 45 sec of denaturation at 95° C., 45 sec of annealing at 58° C., and 1 min of polymerization at 72° C.

Test [1] has as its system human bone marrow mesenchymal stem cells (MSCs). Briefly: Proliferation of human bone marrow MSCs in basic medium with E2 or E3 (MTS, Example 3). The protocol:
This study investigates the mitogenic effects of estrogen receptor ligands on human bone marrow MSCs that is not contacted with osteogenic or adipogenic medium. Purified human bone marrow mesenchymal stem cells (MSCs) were purchased commercially. MSCs were respectively exposed to basic medium (DMEM+10% FBS+1% antibiotics), and basic medium supplement with 10^−6 and 10^−9 M 17-β estradiol (E2) and estriol (E3) for approximately one week. Then, various cells were plated into 96-well plates in 500 cells/well and continued to be exposed to the media. After 4 days, cell densities were measured by MTS methods and compared to initial densities. FIG. 8 illustrates the increase of the number of MSCs after being treated with basic medium and basic medium supplemented with E2 or E3.

Test [2] has as its system rat bone MSC-based TE constructs. Description: Osteogenic differentiation of rat bone MSC-based TE constructs with E2 (Example 4). To be noted: 14 days; for calcium deposition: FIG. 9C. The protocol:
TE constructs were created by seeding passage-1 MSCs on gelatin sponges (Gelfoam@, Pharmacia & Upjohn, Kalamazoo, Mich.). The sponge were trimmed into 4×4×4 mm^3 and pre-wet with DMEM medium for 1 hr. The sponges were transferred to MSC suspension with a cell density of 2×10^6 cells/ml under a slight vacuum created by 20 ml syringe, followed by incubation in 5% CO2 at 37° C. for two hours. Beginning the next day as day-0, TE constructs were respectively exposed to the osteogenic differentiation medium supplemented with different concentrations of E2 (10^−6M to 10^−12M). The osteogenic differentiation medium consists of basic medium supplemented with 100 nM dexamethasone, 10 mM β-glycerophosphate, and 0.05 mM ascorbic acid-2-phosphate. After two weeks of differentiation, constructs of each experimental group were collected and quantitatively measured for osteogenic differentiation.
TE constructs were immersed in 0.2 ml of 1% Triton-X100 and homogenized with sonication. The DNA concentration of cell lysate was measured fluorometrically using Hoechst dye 33258 (Bio-Rad, Hercules, Calif.). The fluorescent optical density of each sample was measured using a fluorometer having an excitation wavelength of 360 nm and an emission wavelength of 460 nm. The amount of DNA in each sample was determined by using a prepared standard curve. ALP and calcium content were measured by spectrophotometry with a calorimetric kit according to the manufacturers' instructions (Sigma, St. Louis, Mo.).

As to `C[C@]12CC[C@@H]3c4ccc(O)cc4CC[C@H]3[C@@H]1CC[C@@H]2O` [E2, 17-β estradiol], the calcium content result in the test on human bone marrow MSCs (FIG. 2C) was “significantly increased”. Further, the ALP activities result in the test with human bone marrow MSCs (after 14 days, FIG. 2B) was “little statistical significance”. The “OCN expression (RT-PCR)” value in the test with human bone marrow MSCs (day 7, E2 10 nM) is on record as “only densely expressed”. For the same compound, the “cbfa-1 expression (RT-PCR band)” value in the test with human bone marrow MSCs (day 7, vs differentiation without estrogen supplement) is on record as “denser band”. The “PPAR-γ2 expression (RT-PCR)” value in the test on human bone marrow MSCs (day 7, vs standard osteogenic medium) is reported as “inhibited”. Besides, the “cell proliferation (amount of DNA) during osteogenesis” value with human bone marrow MSCs (higher dose of E2, FIG. 2A) is “does not affect”. Also, in the test on human bone marrow MSCs (osteogenic differentiation medium supplemented with E2 (10 nM or 10 pM)), the “ALP and von Kossa staining” value is listed as “denser color”. The “cell proliferation (MTS assay and cell counting)” value in test [1] (10^−6 and 10^−9 M, about one week then 4 days in 96-well plates, FIG. 8) was “greatly increased”. Moreover, the “differentiation capabilities (adipogenic and osteogenic) of modulated MSCs” value in test [1] (vs controls) was “maintain their differentiation capabilities”. Further, the “peak concentration of E2 to increase ALP activity” value in test [2] (both male and female MSCs) is 10^−10 M. Moreover, the values for the calcium deposition result in test [2] (female MSC-derived constructs) and in test [2] (male MSC-derived constructs) were “does not appear to have similar effects” and “may also improve”, respectively. Moreover, in test [2] (male and female constructs, dose-dependent, FIG. 9B), the “ALP activities of constructs” value was “increased”.
